Target: T1, CFTR (F508del/MF-HBE cells) (Homo sapiens, UniProt P13569, DEL508-508)
T1 construct: human bronchial epithelial (HBE) cells derived from CF subjects heterozygous for F508del and a minimal function CFTR mutation; endogenous in cells; host or cells: primary human bronchial epithelial cells from CF subjects (F508del/MF genotype)
Assay: Ussing chamber assay of CFTR-mediated short-circuit currents (identification of potentiator compounds)
Assay type: cell-based
Details: CFTR-mediated ISC in F508del/MF-HBE cells; incubated 18-24 hours at 37° C. with 10 μM (14S)-8-[3-(2-{dispiro[2.0.2.1]heptan-7-yl}ethoxy)-1H-pyrazol-1-yl]-...-2,2,4-trione, 20% human serum
Experimental: Ussing Chamber Assay of CFTR-Mediated Short-Circuit Currents
Ussing chamber experiments were performed using human bronchial epithelial (HBE) cells derived from CF subjects heterozygous for F508del and a minimal function CFTR mutation (F508del/MF-HBE) and cultured as previously described (Neuberger T, Burton B, Clark H, Van Goor F Methods Mol Biol 2011:741:39-54). After four days the apical media was removed, and the cells were grown at an air liquid interface for >14 days prior to use.
To isolate the CFTR-mediated short-circuit (ISC) current, F508del/MF-HBE grown on Costar® Snapwell™ cell culture inserts were mounted in an Ussing chamber and the transepithelial ISC was measured under voltage-clamp recording conditions (Vhold=0 mV) at 37° C. The basolateral solution contained (in mM) 145 NaCl, 0.83 K2HPO4, 3.3 KH2PO4, 1.2 MgCl2, 1.2 CaCl2), 10 Glucose, 10 HEPES (pH adjusted to 7.4 with NaOH) and the apical solution contained (in mM) 145 NaGluconate, 1.2 MgCl2, 1.2 CaCl2), 10 glucose, 10 HEPES (pH adjusted to 7.4 with NaOH) and 30 μM amiloride to block the epithelial sodium channel. Forskolin (20 μM) was added to the apical surface to activate CFTR, followed by apical addition of a CFTR inhibitor cocktail consisting of BPO, GlyH-101 and CFTR inhibitor 172 (each at 20 μM final assay concentration) to specifically isolate CFTR currents. The CFTR-mediated ISC (μA/cm^2) for each condition was determined from the peak forskolin response to the steady-state current following inhibition.
Identification of Potentiator Compounds
The activity of the CFTR potentiator compounds on the CFTR-mediated ISC was determined in Ussing chamber studies as described above. The F508del/MF-HBE cell cultures were incubated with the potentiator compounds at a range of concentrations in combination with 10 μM (14S)-8-[3-(2-{dispiro[2.0.2.1]heptan-7-yl}ethoxy)-1H-pyrazol-1-yl]-12,12-dimethyl-2λ^6-thia-3,9,11,18,23-pentaazatetracyclo [17.3.1.111,14.05,10]tetracosa-1(22),5,7,9,19(23),20-hexaene-2,2,4-trione for 18-24 hours at 37° C. and in the presence of 20% human serum. The concentration of potentiator compounds and (14S)-8-[3-(2-{dispiro[2.0.2.1]heptan-7-yl}ethoxy)-1H-pyrazol-1-yl]-12,12-dimethyl-2λ^6-thia-3,9,11,18,23-pentaazatetracyclo [17.3.1.111,14.05,10]tetracosa-1(22),5,7,9,19(23),20-hexaene-2,2,4-trione used during the 18-24 hours incubations was kept constant throughout the Ussing chamber measurement of the CFTR-mediated ISC to ensure compounds were present throughout the entire experiment. The efficacy and potency of the putative F508del potentiators was compared to that of the known Vertex potentiator, ivacaftor (N-[2,4-bis(1,1-dimethylethyl)-5-hydroxyphenyl]-1,4-dihydro-4-oxoquinoline-3-carboxamide).

T1 sequence (P13569 with tags, fused parts or gaps DEL508-508): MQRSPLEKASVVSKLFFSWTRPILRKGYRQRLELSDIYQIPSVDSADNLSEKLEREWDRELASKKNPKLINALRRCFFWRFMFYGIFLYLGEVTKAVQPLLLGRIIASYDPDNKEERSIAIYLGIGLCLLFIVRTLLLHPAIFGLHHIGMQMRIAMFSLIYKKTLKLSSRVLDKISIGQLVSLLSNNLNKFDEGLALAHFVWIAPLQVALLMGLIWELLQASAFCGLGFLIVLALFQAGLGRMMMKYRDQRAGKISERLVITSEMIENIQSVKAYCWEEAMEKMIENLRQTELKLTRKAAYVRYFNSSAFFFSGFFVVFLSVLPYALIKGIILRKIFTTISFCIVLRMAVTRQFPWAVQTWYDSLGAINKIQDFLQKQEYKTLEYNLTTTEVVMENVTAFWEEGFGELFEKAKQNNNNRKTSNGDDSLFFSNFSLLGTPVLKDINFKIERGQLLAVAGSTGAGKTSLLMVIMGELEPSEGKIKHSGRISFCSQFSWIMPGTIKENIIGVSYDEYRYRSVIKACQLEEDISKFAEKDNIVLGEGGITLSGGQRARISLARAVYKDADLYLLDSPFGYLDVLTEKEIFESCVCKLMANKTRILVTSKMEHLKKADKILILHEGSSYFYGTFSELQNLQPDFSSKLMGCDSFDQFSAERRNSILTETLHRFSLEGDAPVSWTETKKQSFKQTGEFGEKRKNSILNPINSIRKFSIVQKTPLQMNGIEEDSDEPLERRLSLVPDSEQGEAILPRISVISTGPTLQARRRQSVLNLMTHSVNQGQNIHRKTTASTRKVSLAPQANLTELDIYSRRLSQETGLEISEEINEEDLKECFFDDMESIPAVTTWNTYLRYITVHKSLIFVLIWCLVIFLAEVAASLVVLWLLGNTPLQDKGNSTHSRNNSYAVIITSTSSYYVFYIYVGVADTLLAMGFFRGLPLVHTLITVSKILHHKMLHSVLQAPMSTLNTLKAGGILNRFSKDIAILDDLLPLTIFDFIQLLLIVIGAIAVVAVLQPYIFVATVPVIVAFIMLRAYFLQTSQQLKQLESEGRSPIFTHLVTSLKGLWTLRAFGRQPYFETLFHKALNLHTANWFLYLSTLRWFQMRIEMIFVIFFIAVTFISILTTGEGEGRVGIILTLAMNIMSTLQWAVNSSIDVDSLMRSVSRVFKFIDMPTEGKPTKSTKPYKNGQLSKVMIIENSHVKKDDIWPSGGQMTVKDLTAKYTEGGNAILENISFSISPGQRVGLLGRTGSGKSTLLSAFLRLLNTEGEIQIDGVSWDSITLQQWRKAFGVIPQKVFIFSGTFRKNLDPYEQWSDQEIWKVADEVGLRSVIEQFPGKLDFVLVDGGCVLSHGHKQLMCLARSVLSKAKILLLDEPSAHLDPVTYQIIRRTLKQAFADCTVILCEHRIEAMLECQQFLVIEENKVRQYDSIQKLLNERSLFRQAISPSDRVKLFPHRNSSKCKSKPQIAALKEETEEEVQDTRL

Nc1cc(C(F)(F)F)c2nc1-c1nnc(o1)C(O)(C1CCOCC1)CCCCC[C@@H]1CCCN21 (single isomer, unassigned) [Compound 89]
EC50: > 1000 nM

[2H]C([2H])([2H])C1(C([2H])([2H])[2H])CCCCC[C@](O)(C(F)(F)F)C2=NN=C(O2)c2nc(c(C(F)(F)F)cc2N)N1 [Compound 176, (6R)-17-amino-12,12-bis(trideuteriomethyl)-6,15-bis(trifluoromethyl)-19-oxa-3,4,13,18-tetrazatricyclo[12.3.1.12,5]nonadeca-1(18),2,4,14,16-pentaen-6-ol]
EC50: < 500 nM

Nc1cc(C(F)(F)F)c2nc1-c1nnc(o1)[C@](O)(C(F)(F)F)c1cc(ccc1F)C=CC[C@@H]1CCCN21 (mixture of isomers) [Compound 139, (6S,15S)-23-amino-8-fluoro-6,21-bis(trifluoromethyl)-26-oxa-3,4,19,24-tetraazapentacyclo[18.3.1.12,5.17,11.015,19]hexacosa-1(24),2,4,7(25),8,10,12,20,22-nonaen-6-ol]
EC50: > 1000 nM

Nc1cc(C(F)(F)F)c2nc1-c1nnc(o1)C(O)(C(F)(F)F)CCCCC[C@@H]1COCC(=O)N21 (single isomer, unassigned) [Compound 117]
EC50: > 1000 nM

Nc1cc(C(F)(F)F)c2nc1-c1nnc(o1)C(O)(C(F)(F)F)CCCCCCC1CCCN21 (single isomer, unassigned) [Compound 24, 21-amino-6,19-bis(trifluoromethyl)-23-oxa-3,4,17,22-tetraazatetracyclo[16.3.1.12,5.013,17]tricosa-1(22),2,4,18,20-pentaen-6-ol]
EC50: < 500 nM

Nc1cc(C(F)(F)F)c2nc1-c1nnc(o1)C(O)(C(F)(F)F)CCCCCCC(=O)N2 (single isomer, unassigned) [Compound 106, 18-Amino-6-hydroxy-6,16-bis(trifluoromethyl)-20-oxa-3,4,14,19-tetrazatricyclo[13.3.1.12,5]icosa-1(19),2,4,15,17-pentaen-13-one]
EC50: < 500 nM

Nc1cc(C(F)(F)F)c2nc1-c1nnc(o1)[C@@](O)(C(F)(F)F)CCCCCC(C(=O)N1CCCC1)N2 (single isomer, unassigned) [Compound 157]
EC50: < 500 nM

CC1(C)CCCCC[C@@](O)(C(F)(F)F)C2=NN=C(O2)c2nc(c(C(F)(F)F)cc2N)N1 [Compound 165, (6S)-17-Amino-12,12-dimethyl-6,15-bis(trifluoromethyl)-19-oxa-3,4,13,18-tetrazatricyclo[12.3.1.12,5]nonadeca-1(18),2,4,14,16-pentaen-6-ol]
EC50: > 1000 nM

COc1cc(N)c2nc1N1CCC[C@H]1CCCCCC(O)(C(F)(F)F)C1=NN=C2O1 (single isomer, unassigned) [Compound 115]
EC50: > 1000 nM

CC(C)N1CCCCCCC(O)(C(F)(F)F)C2=NN=C(O2)c2nc1c(C(F)(F)F)cc2N (single isomer, unassigned) [Compound 52, 17-amino-13-isopropyl-6,15-bis(trifluoromethyl)-19-oxa-3,4,13,18-tetrazatricyclo[12.3.1.12,5]nonadeca-1(18),2,4,14,16-pentaen-6-ol]
EC50: < 500 nM

Nc1cc(C2CC2)c2nc1-c1nnc(o1)C(O)(C(F)(F)F)CCCCC[C@@H]1CCCN21 (single isomer, unassigned) [Compound 90]
EC50: < 500 nM

Nc1cc(C(F)(F)F)c2nc1-c1nnc(o1)C(O)(C(F)(F)F)CCCC[C@@H]1CCCN21 (single isomer, unassigned) [Compound 32]
EC50: < 500 nM

CC1(C)Nc2nc(c(N)cc2C(F)(F)F)C2=NN=C(O2)[C@@](O)(C(F)(F)F)CCCCC1O (single isomer, unassigned) [Compound 203]
EC50: < 500 nM

Nc1cc(C(F)(F)F)c2nc1-c1nnc(o1)C(O)(C(F)(F)F)CCCCCCC1CCCN21 (single isomer, unassigned) [Compound 23, 21-amino-6,19-bis(trifluoromethyl)-23-oxa-3,4,17,22-tetraazatetracyclo[16.3.1.12,5.013,17]tricosa-1(22),2,4,18,20-pentaen-6-ol]
EC50: < 500 nM

CN1CCN(C)c2nc(c(N)cc2C(F)(F)F)C2=NN=C(O2)C(O)(C(F)(F)F)CCC1=O (single isomer, unassigned) [Compound 44, 17-amino-6-hydroxy-10,13-dimethyl-6,15-bis(trifluoromethyl)-19-oxa-3,4,10,13,18-pentazatricyclo[12.3.1.12,5]nonadeca-1(18),2,4,14,16-pentaen-9-one]
EC50: 500 to 1000 nM

CC(C)C1CCCCC[C@](O)(C(F)(F)F)C2=NN=C(O2)c2nc(c(C(F)(F)F)cc2N)N1 (single isomer, unassigned) [Compound 179]
EC50: < 500 nM

N#Cc1cc(N)c2nc1N1CCC[C@H]1CCCCCC(O)(C(F)(F)F)C1=NN=C2O1 (single isomer, unassigned) [Compound 80]
EC50: < 500 nM

Nc1cc(S(=O)(=O)c2ccc(OC(F)(F)F)cc2)c2nc1-c1nnc(o1)C(O)(C(F)(F)F)CCCCC[C@@H]1CCCN21 (mixture of isomers) [Compound 143, (12R)-20-amino-18-[4-(trifluoromethoxy)benzenesulfonyl]-6-(trifluoromethyl)-22-oxa-3,4,16,21-tetraazatetracyclo[15.3.1.12,5.012,16]docosa-1(20),2,4,17(21),18-pentaen-6-ol]
EC50: < 500 nM

CC1CCCCCC(O)(C(F)(F)F)C2=NN=C(O2)c2nc(c(C(F)(F)F)cc2N)N1 (single isomer, unassigned) [Compound 65, 17-amino-12-methyl-6,15-bis(trifluoromethyl)-19-oxa-3,4,13,18-tetrazatricyclo[12.3.1.12,5]nonadeca-1(18),2,4,14,16-pentaen-6-ol]
EC50: < 500 nM

Nc1cc(C(F)(F)F)c2nc1-c1nnc(o1)[C@@](O)(C(F)(F)F)c1cc(ccc1F)C=CC[C@@H]1CCCN21 (mixture of isomers) [Compound 138, (6R,15S)-23-amino-8-fluoro-6,21-bis(trifluoromethyl)-26-oxa-3,4,19,24-tetraazapentacyclo[18.3.1.12,5.17,11.015,19]hexacosa-1(24),2,4,7(25),8,10,12,20,22-nonaen-6-ol]
EC50: < 500 nM

CNC(=O)CN1CCCCCCC(O)(C(F)(F)F)C2=NN=C(O2)c2nc1c(C(F)(F)F)cc2N (single isomer, unassigned) [Compound 48, 2-[17-amino-6-hydroxy-6,15-bis(trifluoromethyl)-19-oxa-3,4,13,18-tetrazatricyclo[12.3.1.12,5]nonadeca-1(18),2,4,14,16-pentaen-13-yl]-N-methyl-acetamide]
EC50: < 500 nM

CC(C)C1CCCCC[C@](O)(C(F)(F)F)C2=NN=C(O2)c2nc(c(C(F)(F)F)cc2N)N1 (single isomer, unassigned) [Compound 178]
EC50: < 500 nM

CN1CCCCCCC(O)(C(F)(F)F)C2=NN=C(O2)c2nc1c(S(C)(=O)=O)cc2N (single isomer, unassigned) [Compound 40, 17-amino-13-methyl-15-methylsulfonyl-6-(trifluoromethyl)-19-oxa-3,4,13,18-tetrazatricyclo[12.3.1.12,5]nonadeca-1(18),2,4,14,16-pentaen-6-ol]
EC50: 500 to 1000 nM

CN(C)C(=O)C1CCCCCC(O)(C(F)(F)F)C2=NN=C(O2)c2nc(c(C(F)(F)F)cc2N)N1 (single isomer, unassigned) [Compound 150, 17-amino-6-hydroxy-N,N-dimethyl-6,15-bis(trifluoromethyl)-19-oxa-3,4,13,18-tetrazatricyclo[12.3.1.12,5]nonadeca-1(18),2,4,14,16-pentaene-12-carboxamide]
EC50: > 1000 nM

Nc1cc(C(F)(F)F)c2nc1-c1nnc(o1)[C@](O)(C(F)(F)F)c1cc(ccc1F)CCC[C@@H]1CCCN21 [Compound 59, (6S,15R)-23-amino-8-fluoro-6,21-bis(trifluoromethyl)-26-oxa-3,4,19,24-tetraazapentacyclo[18.3.1.12,5.17,11.015,19]hexacosa-1(24),2,4,7(25),8,10,20,22-octaen-6-ol]
EC50: < 500 nM

Source: patent US12324802B2, “Modulators of cystic fibrosis transmembrane conductance regulator” (Vertex Pharmaceuticals Incorporated, priority 2020, dated 2025)
